Common to all, as to assay type: in vivo
One series has as its system corn. Description: Test Example 4: effect on crop by soil treatment (symbol c). The settings on record: for c: corn, effect grade on crop: 320 g/ha. The source says:
(§1) Herbicidal Effect Test by Soil Treatment
Sterilized diluvial soil was placed in a plastic box having a length of 21 cm, a width of 13 cm, and a depth of 7 cm. Each of the seeds of Digitaria ciliaris, Setaria viridis, Echinochloa crus-galli var. crus-galli, Avena fatua, Alopecurus myosuroides, Lolium multiflorum Lam., Apera spica-venti, Abutilon theophrasti, Amaranthus retroflexus, Chenopodium album, Stellaria media, Galium spurium, Veronica persica, corn, soybean, rice, wheat, beet, and rapeseed was sowed in a spot-like manner and was covered with the soil of a thickness of about 1.5 cm. […] The plastic box was placed in a greenhouse of 25° C. to 30° C. to grow plant.

In another series the test system is Lolium multiflorum Lam. The series is described as follows: Test Example 4: herbicidal effect by soil treatment (symbol K).
Description: as §1
Sterilized diluvial soil was placed in a plastic box having a length of 21 cm, a width of 13 cm, and a depth of 7 cm. Each of the seeds of Digitaria ciliaris, Setaria viridis, Echinochloa crus-galli var. crus-galli, Avena fatua, Alopecurus myosuroides, Lolium multiflorum Lam., Apera spica-venti, Abutilon theophrasti, Amaranthus retroflexus, Chenopodium album, Stellaria media, Galium spurium, Veronica persica, corn, soybean, rice, wheat, beet, and rapeseed was sowed in a spot-like manner and was covered with the soil of a thickness of about 1.5 cm. Subsequently, the emulsion agent of the compound present invention prepared in accordance with Formulation Example 2 was diluted with water so as to be a predetermined herbicide amount and the diluted emulsion agent was uniformly applied to the surface of the soil with a small-size spray. The plastic box was placed in a greenhouse of 25° C. to 30° C. to grow plant. 3 weeks later from the herbicide application, the effect to each plant was investigated in accordance with the criteria of Test Example 1.

The next series deals with Leptochloa chinensis. Description: Test Example 3: herbicidal effect by foliage application, Wagner pot (symbol D). The settings on record: application herbicide amount 320 g/ha; for D (Leptochloa chinensis) herbicidal effect grade: Table 24. Put shortly:
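Rating at 3 weeks post-spray, by defined criteria. Treatment: emulsion diluted with water to a predetermined amount, applied evenly to foliage of 14-day-old plants raised in alluvial soil flooded 0.1–0.5 cm deep at 25–30 °C, rice co-sown.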

[1] abbreviates: application herbicide amount 320 g/ha.

Consider 18 compounds from US11000033B2, “Ketone or oxime compound, and herbicide” (NISSAN CHEMICAL CORPORATION, priority 2014, dated 2021).

SMILES strings stand for the structures.

For the compound `CCC(Oc1ccc2ncc(Br)cc2c1)C(=O)OC1=C(c2c(C)cc(C)cc2C)C(=O)C(CC(C)=NOC)C1` (centres unmarked) [1-140], the “c: corn, effect grade on crop” value with corn was 4 (Herbicidal ratio of 70% or higher and lower than 90%). In addition, the “K: Lolium multiflorum Lam., herbicidal effect grade” value in the series with Lolium multiflorum Lam. (320 g/ha) is recorded as 5 (Herbicidal ratio of 90% or more (almost completely withered)). Also, in the series on Leptochloa chinensis, the “herbicidal effect on D (Leptochloa chinensis), grade 0-5” value (from here on “herbicidal effect on D”) is listed as 5 (Herbicidal ratio of 90% or more (almost completely withered)).
Consider `CON=C(C)CC1CC(OC(=O)C#C[Si](C)(C)C)=C(c2c(C)cc(C)cc2C)C1=O` (centres unmarked) [1-096], for which the “c: corn, effect grade on crop” value in the series on corn is 4 (Herbicidal ratio of 70% or higher and lower than 90%). Moreover, the “K: Lolium multiflorum Lam., herbicidal effect grade” value in the series with Lolium multiflorum Lam. (320 g/ha) was 5 (Herbicidal ratio of 90% or more (almost completely withered)). Further, the “herbicidal effect on D” value with Leptochloa chinensis is given as 5 (Herbicidal ratio of 90% or more (almost completely withered)).
With `CON=C(C)CC1C(O)=C(c2c(C)cc(C)cc2C)C(=O)C1C` (mixture of isomers) [12-002], the “Effect on crop grade, c: corn” value in the series with corn (setting [1]) is 3 (Herbicidal ratio of 40% or higher and lower than 70%). For the same compound, in the series on Lolium multiflorum Lam. (setting [1]), the “Herbicidal effect grade, K: Lolium multiflorum Lam.” value (shortened to “Herbicidal effect grade, K”) was 5 (Herbicidal ratio of 90% or more (almost completely withered)). In addition, in the series on Leptochloa chinensis, the “D (Leptochloa chinensis) herbicidal effect grade” value is on record as 5 (Herbicidal ratio of 90% or more (almost completely withered)).
As for `COCCON=C(CC1CC(O)=C(c2c(C)cc(Br)cc2C)C1=O)C1CC1` (centres unmarked) [9-019], in the series on corn (setting [1]), the “Effect on crop grade, c: corn” value is given as 0 (Herbicidal ratio of 5% or lower (almost no effect)). In addition, the “Herbicidal effect grade, K” value in the series on Lolium multiflorum Lam. (setting [1]) was 3 (Herbicidal ratio of 40% or higher and lower than 70%). Further, the “D (Leptochloa chinensis) herbicidal effect grade” value in the series on Leptochloa chinensis is given as 5 (Herbicidal ratio of 90% or more (almost completely withered)).
Consider `CON=C(C)CC1CC(OC(=O)c2nc(C)sc2C)=C(c2c(C)cc(C)cc2C)C1=O` (centres unmarked) [1-101], for which the “c: corn, effect grade on crop” value with corn is 5 (Herbicidal ratio of 90% or more (almost completely withered)). Moreover, the “K: Lolium multiflorum Lam., herbicidal effect grade” value with Lolium multiflorum Lam. (320 g/ha) is listed as 5 (Herbicidal ratio of 90% or more (almost completely withered)). In the series on Leptochloa chinensis, the “herbicidal effect on D” value is recorded as 5 (Herbicidal ratio of 90% or more (almost completely withered)).
For the compound `CON=C(C)CC1CC(OS(=O)(=O)N(C)C)=C(c2c(C)cc(C)cc2C)C1=O` (centres unmarked) [1-122], in the series on corn, the “c: corn, effect grade on crop” value is 2 (Herbicidal ratio of 20% or higher and lower than 40%). The “K: Lolium multiflorum Lam., herbicidal effect grade” value with Lolium multiflorum Lam. (320 g/ha) was 5 (Herbicidal ratio of 90% or more (almost completely withered)). For the same compound, in the series with Leptochloa chinensis, the “herbicidal effect on D” value is given as 5 (Herbicidal ratio of 90% or more (almost completely withered)).
Regarding `CON=C(CC1CC(O)=C(c2c(C)cc(-c3ccccc3)cc2C)C1=O)C1CC1` (mixture of isomers) [9-028], in the series with corn (setting [1]), the “Effect on crop grade, c: corn” value was 1 (Herbicidal ratio of 5% or higher and lower than 20%). Also, the “Herbicidal effect grade, K” value with Lolium multiflorum Lam. (setting [1]) is on record as 5 (Herbicidal ratio of 90% or more (almost completely withered)). Besides, the “D (Leptochloa chinensis) herbicidal effect grade” value with Leptochloa chinensis was 5 (Herbicidal ratio of 90% or more (almost completely withered)).
With `CC(CC1CC(O)=C(c2c(C)cc(C)cc2C)C1=O)=NOCC#N` (centres unmarked) [1-102], the “c: corn, effect grade on crop” value in the series on corn is recorded as 0 (Herbicidal ratio of 5% or lower (almost no effect)). The “K: Lolium multiflorum Lam., herbicidal effect grade” value in the series on Lolium multiflorum Lam. (320 g/ha) is on record as 5 (Herbicidal ratio of 90% or more (almost completely withered)). The “herbicidal effect on D” value in the series on Leptochloa chinensis is given as 5 (Herbicidal ratio of 90% or more (almost completely withered)).
In the case of `CC(CC1CC(O)=C(c2c(C)cc(C)cc2C)C1=O)=NOCC1OCCO1` (centres unmarked) [1-111], in the series with corn, the “c: corn, effect grade on crop” value is 1 (Herbicidal ratio of 5% or higher and lower than 20%). Also, the “K: Lolium multiflorum Lam., herbicidal effect grade” value with Lolium multiflorum Lam. (320 g/ha) is on record as 5 (Herbicidal ratio of 90% or more (almost completely withered)). Besides, in the series on Leptochloa chinensis, the “herbicidal effect on D” value is recorded as 5 (Herbicidal ratio of 90% or more (almost completely withered)).
With `Cc1cc(Br)cc(C)c1C1=C(O)CC(CC(=NOCC(F)(F)F)C2CC2)C1=O` (centres unmarked) [9-009], in the series with corn (setting [1]), the “Effect on crop grade, c: corn” value is given as 0 (Herbicidal ratio of 5% or lower (almost no effect)). In addition, the “Herbicidal effect grade, K” value in the series with Lolium multiflorum Lam. (setting [1]) is given as 5 (Herbicidal ratio of 90% or more (almost completely withered)). In the series on Leptochloa chinensis, the “D (Leptochloa chinensis) herbicidal effect grade” value is 5 (Herbicidal ratio of 90% or more (almost completely withered)).
For `CC(CC1CC(O)=C(c2c(C)cc(C)cc2C)C1=O)=NOCc1ccccc1Cl` (centres unmarked) [1-113], the “c: corn, effect grade on crop” value in the series with corn is 0 (Herbicidal ratio of 5% or lower (almost no effect)). The “K: Lolium multiflorum Lam., herbicidal effect grade” value in the series with Lolium multiflorum Lam. (320 g/ha) is reported as 5 (Herbicidal ratio of 90% or more (almost completely withered)).
Regarding `CC#Cc1cc(C)c(C2=C(O)CC(CC(=NOC)C3CC3)C2=O)c(C)c1` (centres unmarked) [9-008], the “Effect on crop grade, c: corn” value with corn (setting [1]) is 4 (Herbicidal ratio of 70% or higher and lower than 90%). Also, in the series with Lolium multiflorum Lam. (setting [1]), the “Herbicidal effect grade, K” value is 5 (Herbicidal ratio of 90% or more (almost completely withered)). For the same compound, the “D (Leptochloa chinensis) herbicidal effect grade” value with Leptochloa chinensis is listed as 5 (Herbicidal ratio of 90% or more (almost completely withered)).
For `COc1ccc(CON=C(C)CC2CC(O)=C(c3c(C)cc(C)cc3C)C2=O)cc1` (centres unmarked) [1-112], in the series with corn, the “c: corn, effect grade on crop” value was 1 (Herbicidal ratio of 5% or higher and lower than 20%). In addition, in the series on Lolium multiflorum Lam. (320 g/ha), the “K: Lolium multiflorum Lam., herbicidal effect grade” value is 5 (Herbicidal ratio of 90% or more (almost completely withered)). Moreover, the “herbicidal effect on D” value with Leptochloa chinensis is listed as 5 (Herbicidal ratio of 90% or more (almost completely withered)).
Consider `CON=C(CC1CC(OC(=O)C(C)(C)C)=C(c2c(C)cc(C)cc2OC)C1=O)C1CC1` (mixture of isomers) [13-006], for which, in the series with corn (setting [1]), the “c: corn, effect on crop grade” value was 1 (Herbicidal ratio of 5% or higher and lower than 20%). For the same compound, the “K: Lolium multiflorum Lam., herbicidal effect grade” value in the series with Lolium multiflorum Lam. (setting [1]) is given as 5 (Herbicidal ratio of 90% or more (almost completely withered)). Besides, the “D (Leptochloa chinensis) herbicidal effect grade” value in the series with Leptochloa chinensis is 5 (Herbicidal ratio of 90% or more (almost completely withered)).
Consider `CCCCCCCCS(=O)(=O)OC1=C(c2c(C)cc(C)cc2C)C(=O)C(CC(C)=NOC)C1` (centres unmarked) [1-107], for which the “c: corn, effect grade on crop” value in the series with corn is listed as 0 (Herbicidal ratio of 5% or lower (almost no effect)). Moreover, the “K: Lolium multiflorum Lam., herbicidal effect grade” value with Lolium multiflorum Lam. (320 g/ha) is recorded as 5 (Herbicidal ratio of 90% or more (almost completely withered)). Also, the “herbicidal effect on D” value in the series on Leptochloa chinensis is recorded as 5 (Herbicidal ratio of 90% or more (almost completely withered)).
Take `CON=C(C)CC1CC(OC(=O)c2nsc(Cl)c2Cl)=C(c2c(C)cc(C)cc2C)C1=O` (centres unmarked) [1-099]: the “c: corn, effect grade on crop” value in the series with corn is reported as 5 (Herbicidal ratio of 90% or more (almost completely withered)). Also, the “K: Lolium multiflorum Lam., herbicidal effect grade” value in the series on Lolium multiflorum Lam. (320 g/ha) is 5 (Herbicidal ratio of 90% or more (almost completely withered)). Moreover, the “herbicidal effect on D” value in the series with Leptochloa chinensis is listed as 5 (Herbicidal ratio of 90% or more (almost completely withered)).
Take `CC(CC1CC(O)=C(c2c(C)cc(C)cc2C)C1=O)=NOC1CCCC1` (centres unmarked) [1-106]: the “c: corn, effect grade on crop” value in the series with corn is 1 (Herbicidal ratio of 5% or higher and lower than 20%). Also, in the series with Lolium multiflorum Lam. (320 g/ha), the “K: Lolium multiflorum Lam., herbicidal effect grade” value is 5 (Herbicidal ratio of 90% or more (almost completely withered)). In addition, in the series on Leptochloa chinensis, the “herbicidal effect on D” value was 5 (Herbicidal ratio of 90% or more (almost completely withered)).
Take `CC(CC1CC(O)=C(c2c(C)cc(C)cc2C)C1=O)=NOCc1ccc(Cl)cc1` (centres unmarked) [1-137]: in the series on corn, the “c: corn, effect grade on crop” value was 0 (Herbicidal ratio of 5% or lower (almost no effect)). Besides, the “K: Lolium multiflorum Lam., herbicidal effect grade” value with Lolium multiflorum Lam. (320 g/ha) is given as 5 (Herbicidal ratio of 90% or more (almost completely withered)). Besides, in the series with Leptochloa chinensis, the “herbicidal effect on D” value is on record as 5 (Herbicidal ratio of 90% or more (almost completely withered)).
